# Test results reported in US11149030B2, “Plants having increased tolerance to herbicides” (BASF AGRO B.V., priority 2016, dated 2021).
# Test system: transgenic T2 Arabidopsis plants
# Test: Greenhouse spray of transgenic T2 Arabidopsis plants, herbicide injury 0 to 100% phytotox rating (Table A)
# Type: in vivo
# Conditions: 14 days after treatment
# Description: Additionally, transgenic T2 Arabidopsis plants are tested for improved tolerance to herbicides in greenhouse studies with the following herbicides: methyl 2-[2-chloro-5-[3-chloro-5-(trifluoromethyl)-2-pyridyl]-4-fluoro-phenoxy]-2-methoxy-acetate, and photosynthesis inhibitor diuron as negative control.
# Table A: Transgenic T2 Arabidopsis plants, four weeks old, were sprayed in the greenhouse with the indicated amount of compound+1% (v/v) MSO. Herbicide injury was evaluated 14 days after treatment with a 0 to 100% phytotox rating scale where 0 is no injury relative to an unsprayed wild type check and 100% is completely dead.
smiles,measurement,setting,value
COC(=O)C(OC)Oc1cc(-c2ncc(C(F)(F)F)cc2Cl)c(F)cc1Cl (stereo not shown) [methyl 2-[2-chloro-5-[3-chloro-5-(trifluoromethyl)-2-pyridyl]-4-fluoro-phenoxy]-2-methoxy-acetate],"Herbicide injury, 0 to 100% phytotox rating","construct AMATU_PPO2 L397Q_F420M, 50 g ai/ha + 1% (v/v) MSO",45%
same,"Herbicide injury, 0 to 100% phytotox rating","construct AMATU_PPO2 L397Q_F420M, 100 g ai/ha + 1% (v/v) MSO",61%
same,"Herbicide injury, 0 to 100% phytotox rating","construct AMATU_PPO2 L397Q_F420M, 200 g ai/ha + 1% (v/v) MSO",73%
same,"Herbicide injury, 0 to 100% phytotox rating","construct AMATU_PPO2 L397Q_F420V, 50 g ai/ha + 1% (v/v) MSO",69%
same,"Herbicide injury, 0 to 100% phytotox rating","construct AMATU_PPO2 L397Q_F420V, 100 g ai/ha + 1% (v/v) MSO",66%
same,"Herbicide injury, 0 to 100% phytotox rating","construct AMATU_PPO2 L397Q_F420V, 200 g ai/ha + 1% (v/v) MSO",83%
same,"Herbicide injury, 0 to 100% phytotox rating","construct AMATU_PPO2 R128A_F420V, 50 g ai/ha + 1% (v/v) MSO",51%
same,"Herbicide injury, 0 to 100% phytotox rating","construct AMATU_PPO2 R128A_F420V, 100 g ai/ha + 1% (v/v) MSO",69%
same,"Herbicide injury, 0 to 100% phytotox rating","construct AMATU_PPO2 R128A_F420V, 150 g ai/ha + 1% (v/v) MSO",73%
same,"Herbicide injury, 0 to 100% phytotox rating","construct AMATU_PPO2 R128I_F420V, 50 g ai/ha + 1% (v/v) MSO",64%
same,"Herbicide injury, 0 to 100% phytotox rating","construct AMATU_PPO2 R128I_F420V, 100 g ai/ha + 1% (v/v) MSO",66%
same,"Herbicide injury, 0 to 100% phytotox rating","construct AMATU_PPO2 R128I_F420V, 200 g ai/ha + 1% (v/v) MSO",80%
same,"Herbicide injury, 0 to 100% phytotox rating","construct AMATU_PPO2 R128L_F420L, 50 g ai/ha + 1% (v/v) MSO",18%
same,"Herbicide injury, 0 to 100% phytotox rating","construct AMATU_PPO2 R128L_F420L, 100 g ai/ha + 1% (v/v) MSO",30%
same,"Herbicide injury, 0 to 100% phytotox rating","construct AMATU_PPO2 R128L_F420L, 200 g ai/ha + 1% (v/v) MSO",56%
same,"Herbicide injury, 0 to 100% phytotox rating","construct AMATU_PPO2 R128M_F420I, 50 g ai/ha + 1% (v/v) MSO",63%
same,"Herbicide injury, 0 to 100% phytotox rating","construct AMATU_PPO2 R128M_F420I, 100 g ai/ha + 1% (v/v) MSO",83%
same,"Herbicide injury, 0 to 100% phytotox rating","construct AMATU_PPO2 R128M_F420I, 200 g ai/ha + 1% (v/v) MSO",91%
same,"Herbicide injury, 0 to 100% phytotox rating","construct AMATU_PPO2 R128M_F420L, 50 g ai/ha + 1% (v/v) MSO",30%
same,"Herbicide injury, 0 to 100% phytotox rating","construct AMATU_PPO2 R128M_F420L, 100 g ai/ha + 1% (v/v) MSO",60%
same,"Herbicide injury, 0 to 100% phytotox rating","construct AMATU_PPO2 R128M_F420L, 200 g ai/ha + 1% (v/v) MSO",73%
same,"Herbicide injury, 0 to 100% phytotox rating","construct AMATU_PPO2 R128M_F420M, 50 g ai/ha + 1% (v/v) MSO",100%
same,"Herbicide injury, 0 to 100% phytotox rating","construct AMATU_PPO2 R128M_F420M, 100 g ai/ha + 1% (v/v) MSO",85%
same,"Herbicide injury, 0 to 100% phytotox rating","construct AMATU_PPO2 R128M_F420M, 200 g ai/ha + 1% (v/v) MSO",100%
same,"Herbicide injury, 0 to 100% phytotox rating","construct AMATU_PPO2 R128M_F420V, 50 g ai/ha + 1% (v/v) MSO",64%
same,"Herbicide injury, 0 to 100% phytotox rating","construct AMATU_PPO2 R128M_F420V, 100 g ai/ha + 1% (v/v) MSO",75%
same,"Herbicide injury, 0 to 100% phytotox rating","construct AMATU_PPO2 R128M_F420V, 200 g ai/ha + 1% (v/v) MSO",93%
same,"Herbicide injury, 0 to 100% phytotox rating","construct Arabidopsis PPO1 S305L_Y426M, 50 g ai/ha + 1% (v/v) MSO",49%
same,"Herbicide injury, 0 to 100% phytotox rating","construct Arabidopsis PPO1 S305L_Y426M, 100 g ai/ha + 1% (v/v) MSO",100%
same,"Herbicide injury, 0 to 100% phytotox rating","construct Arabidopsis PPO1 S305L_Y426M, 150 g ai/ha + 1% (v/v) MSO",100%
same,"Herbicide injury, 0 to 100% phytotox rating","construct CHLSP_PPO_wt_tpFNR (CHLSP_PPO SEQ ID NO: 256), 50 g ai/ha + 1% (v/v) MSO",91%
same,"Herbicide injury, 0 to 100% phytotox rating","construct CHLSP_PPO_wt_tpFNR (CHLSP_PPO SEQ ID NO: 256), 100 g ai/ha + 1% (v/v) MSO",97%
same,"Herbicide injury, 0 to 100% phytotox rating","construct CHLSP_PPO_wt_tpFNR (CHLSP_PPO SEQ ID NO: 256), 200 g ai/ha + 1% (v/v) MSO",95%
same,"Herbicide injury, 0 to 100% phytotox rating","construct OPITE_PPO_wt_tpFNR (OPITE_PPO SEQ ID NO: 249), 50 g ai/ha + 1% (v/v) MSO",100%
same,"Herbicide injury, 0 to 100% phytotox rating","construct OPITE_PPO_wt_tpFNR (OPITE_PPO SEQ ID NO: 249), 100 g ai/ha + 1% (v/v) MSO",100%
same,"Herbicide injury, 0 to 100% phytotox rating","construct OPITE_PPO_wt_tpFNR (OPITE_PPO SEQ ID NO: 249), 200 g ai/ha + 1% (v/v) MSO",100%
same,"Herbicide injury, 0 to 100% phytotox rating","construct hemG_tp_FNR (SEQ ID NO: 245), 50 g ai/ha + 1% (v/v) MSO",96%
same,"Herbicide injury, 0 to 100% phytotox rating","construct hemG_tp_FNR (SEQ ID NO: 245), 100 g ai/ha + 1% (v/v) MSO",100%
same,"Herbicide injury, 0 to 100% phytotox rating","construct hemG_tp_FNR (SEQ ID NO: 245), 200 g ai/ha + 1% (v/v) MSO",99%
same,"Herbicide injury, 0 to 100% phytotox rating","construct hemG_tp_long AMATU (SEQ ID NO: 246), 50 g ai/ha + 1% (v/v) MSO",68%
same,"Herbicide injury, 0 to 100% phytotox rating","construct hemG_tp_long AMATU (SEQ ID NO: 246), 100 g ai/ha + 1% (v/v) MSO",75%
same,"Herbicide injury, 0 to 100% phytotox rating","construct hemG_tp_long AMATU (SEQ ID NO: 246), 200 g ai/ha + 1% (v/v) MSO",79%
same,"Herbicide injury, 0 to 100% phytotox rating","non transformed Arabidopsis, 50 g ai/ha + 1% (v/v) MSO",100%
same,"Herbicide injury, 0 to 100% phytotox rating","non transformed Arabidopsis, 100 g ai/ha + 1% (v/v) MSO",100%
same,"Herbicide injury, 0 to 100% phytotox rating","non transformed Arabidopsis, 150 g ai/ha + 1% (v/v) MSO",100%
same,"Herbicide injury, 0 to 100% phytotox rating","non transformed Arabidopsis, 200 g ai/ha + 1% (v/v) MSO",100%
